Patent US20220193163A1, “COMPOSITION COMPRISING ACTINIDIA POLYGAMA EXTRACT FOR ALLEVIATING SKIN DAMAGE OR MOISTURIZING SKIN” (G&P BIOSCIENCE CO., LTD., priority 2019, published 2022)

Legend:
[1] = DPPH radical-scavenging ability; assay type: biochemical
Procedure: DPPH [[…]] is a free-radical compound. […] Accordingly, antioxidant activity can be compared from the ratio of decolorized DPPH radicals. After mixing 50 μL of a 0.36 mM DPPH solution and 50 μL of a test substance dissolved in ethanol at 1:1 and conducting reaction at room temperature in the dark for 30 minutes, absorbance was measured at 540 nm. The DPPH radical-scavenging ability of Example 1, Comparative Example 1 and Comparative Example 2 of different darae species at different concentrations was calculated from the measured absorbance.

[2] = ABTS radical-scavenging ability; assay type: biochemical
Procedure: After dissolving 7.4 mM 2,2-azino-bis(3-ethylbenzthiazoline-6-sulfonic acid) and 2.6 mM potassium persulfate respectively in distilled water and mixing at 1:1, ABTS^+ is formed by conducting reaction at room temperature in the dark for 24 hours. 24 hours later, the ABTS solution was diluted to purified water to adjust absorbance at 732 nm to 0.7. Then, after adding 10 μL of a test substance to 190 μL of the ABTS solution and conducting reaction in the dark for 10 minutes, absorbance was measured at 732 nm. The ABTS radical-scavenging ability of Example 1, Comparative Example 1 and Comparative Example 2 of different darae species at different concentrations was calculated from the measured absorbance.

| DPPH radical-scavenging ability IC50 [1] [µg/mL] | ABTS radical-scavenging ability IC50 [2] [µg/mL] | Compound |
| --- | --- | --- |
| 30 ± 10 |  | O=C1O[C@H]([C@@H](O)CO)C(O)=C1O [L-Ascorbic acid] |
|  | 100 ± 10 | Cc1c(C)c2c(c(C)c1O)CCC(C)(C(=O)O)O2 (centres unmarked) [Trolox] |
